Results reported in patent publication US7879876B2, “Sulfonamide derivatives and use thereof for the modulation of metalloproteinases” (Merck Serono SA, priority 2005, dated 2011).

Tests used:
Assay type in all cases: biochemical
[1] = molecular target: metalloelastase (MMP-12) (Homo sapiens, UniProt P39900); experiment: MMP-12 enzyme inhibition assay (coumarin-labelled peptide substrate); conditions: read-out: IC50 MMP12
Protocol: (§1) Compounds of the invention were tested to assess their activities as inhibitors of MMP-1, MMP-2, MMP-9, MMP-14, MMP-12 and TACE. MMP-9 Assay Protocol
(§2) Compounds of the invention were tested for inhibitory activity against 92 kDa gelatinase (MMP-9) in an assay using a coumarin-labeled peptide substrate, (7-methoxycoumarin-4-yl)acetyl-Pro-Leu-Gly-Leu-(3-[2,4-dinitrophenyl]-L-2,3diaminopropionyl)-Ala-Arg-NH2 (McaPLGLDpaAR) (Knight et al, FEBS Lett. 1992; 263-266).
(§3) Stock solutions were made up as follows: Assay Butter: 100 mM Tris-HCl pH 7.6 containing 100 mM NaCl, 10 mM CaCl2, and 0.05% Brij 35.
(§4) Substrate: 0.4 mM McaPLGLDpaAR (from Bachem) (0.437 mg/ml) stock solution in 100% DMSO (stored at −20° C.). Dilute to 8 μM in assay butter.
(§5) Enzyme: Recombinant human 92 kDa gelatinase (MMP-9; APMA (4-aminophenyl mercuric acetate)-activated if necessary) appropriately diluted in assay butter.
(§6) Test Compounds were prepared initially as 10 mM compound solution in 100% DMSO, diluted to 1 mM in 100% DMSO, then serially diluted 3-fold in 100% DMSO across columns 1-10 of a 96-well microtitre plate Assay concentration range, 100 μM (column 1) to 5.1 nM (column 10).
(§7) The assay was performed in a total volume of 100 μL per well in 96-well microtitre plates. Activated enzyme (20 μL) was added to the wells followed by 20 μL of assay butter. Appropriate concentrations of test compounds dissolved in 10 μL of DMSO were then added followed by 50 μL of McaPLGLDpaAR (8 μM, prepared by dilution of DMSO stock in assay butter). For each as say ten concentrations of test compound were examined in duplicate. Control wells lack either enzyme or test compound. The reactions were incubated at 37° C. for 2 hours. The fluorescence at 405 nm was measured immediately with an SLT Fluostar fluorometer (SL T Labinstruments GmbH, Grödig, Austria) using 320 nm excitation, without stopping the reaction.
(§8) The effect of the test compound was determined from the dose response curve generated by the 10 duplicate concentrations of inhibitor. The IC50 (the concentration of compound required to give a 50% decrease in enzyme activity) was obtained by fitting data to the equation, Y=a+((b−a)/(1+(c/X)^d)). (Y=inhibition achieved for a particular dose; X=the dose in nM; a=minimum y or zero % inhibition; b=maximum y or 100% inhibition; c=is the IC50; d=is the slope). The result was rounded to one significant figure.
Compounds of the invention were tested for inhibitory activity against metalloelastase (MMP-12) in an assay using a coumarin-labelled peptide substrate, (7-methoxycoumarin-4-yl)acetyl-Pro-Leu-Gly-Leu-(3-[2,4-dinitrophenyl]-L-2,3-diaminopropionyl)-Ala-Arg-NH2 (McaPLGLDpaAR) (Knight et al, 1992, above). The protocol for this assay was as described for the MMP-9 assay above.

[2] = molecular target: T1, gelatinase A (MMP-2) (Homo sapiens, UniProt P08253); experiment: MMP-2 enzyme inhibition assay (coumarin-labelled peptide substrate); conditions: read-out: IC50 MMP2
T1 sequence (P08253 110-660): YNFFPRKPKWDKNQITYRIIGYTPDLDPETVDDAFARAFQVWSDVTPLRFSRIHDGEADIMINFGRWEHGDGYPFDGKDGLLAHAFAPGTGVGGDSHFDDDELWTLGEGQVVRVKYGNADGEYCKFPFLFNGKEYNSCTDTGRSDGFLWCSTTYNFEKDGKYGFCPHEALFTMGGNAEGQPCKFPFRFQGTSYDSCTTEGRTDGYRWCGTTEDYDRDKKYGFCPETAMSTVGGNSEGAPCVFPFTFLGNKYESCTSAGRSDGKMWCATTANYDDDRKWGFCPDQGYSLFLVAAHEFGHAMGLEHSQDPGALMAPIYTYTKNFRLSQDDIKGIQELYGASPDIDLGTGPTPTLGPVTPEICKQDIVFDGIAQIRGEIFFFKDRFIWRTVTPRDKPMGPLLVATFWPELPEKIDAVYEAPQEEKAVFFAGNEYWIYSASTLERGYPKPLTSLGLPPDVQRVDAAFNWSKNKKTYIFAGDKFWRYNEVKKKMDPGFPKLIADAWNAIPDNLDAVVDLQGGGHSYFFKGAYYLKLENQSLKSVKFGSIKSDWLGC
Protocol: Compounds of the invention were tested to assess their activities as inhibitors of MMP-1, MMP-2, MMP-9, MMP-14, MMP-12 and TACE. MMP-9 Assay Protocol […]
as §3
Substrate: 0.4 mM McaPLGLDpaAR (from Bachem) (0.437 mg/ml) stock solution in 100% DMSO (stored at −20° C.). Dilute to 8 μM in assay butter. […]
as §6, §7, §8
(§9) Compounds of the invention were tested for inhibitory activity against gelatinase A (MMP-2) in an assay using a coumarin-labelled peptide substrate, (7-methoxycoumarin-4-yl)acetyl-Pro-Leu-Gly-Leu-(3-[2,4-dinitrophenyl]-L-2,3diaminopropionyl)-Ala-Arg-NH2 (Mca PLGLDpaAR) (Knight et al, 1992, above). The protocol for this assay was as described for the MMP-9 assay above.

[3] = molecular target: MMP-14 (Homo sapiens, UniProt P50281); experiment: MMP-14 enzyme inhibition assay (coumarin-labelled peptide substrate); conditions: read-out: percentage inhibition MMP14
Protocol: as §1, §2, §3, §4, §5, §6, §7, §8
as §9, with “MMP-14” for “gelatinase A (MMP-2)”, “PLGLD paAR)” for “PLGLDpaAR)”

[4] = molecular target: T2, collagenase (MMP-1) (Homo sapiens, UniProt P03956); experiment: MMP-1 enzyme inhibition assay (coumarin-labelled peptide substrate); conditions: @ 5 μM; read-out: percentage inhibition MMP1
T2 sequence (P03956 100-469): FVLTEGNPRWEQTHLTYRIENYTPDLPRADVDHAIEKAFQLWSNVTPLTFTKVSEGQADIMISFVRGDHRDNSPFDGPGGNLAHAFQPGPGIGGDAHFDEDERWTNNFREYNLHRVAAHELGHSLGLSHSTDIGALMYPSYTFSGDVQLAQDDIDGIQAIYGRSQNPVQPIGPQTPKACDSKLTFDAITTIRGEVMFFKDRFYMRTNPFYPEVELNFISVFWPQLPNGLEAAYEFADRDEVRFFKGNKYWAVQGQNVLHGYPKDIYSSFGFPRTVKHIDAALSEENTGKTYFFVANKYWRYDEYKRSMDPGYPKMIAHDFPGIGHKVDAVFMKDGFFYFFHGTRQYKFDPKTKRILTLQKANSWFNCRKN
Protocol: as §1, §2, §3, §4, §5, §6, §7, §8
as §9, with “collagenase (MMP-1)” for “gelatinase A (MMP-2)”

[5] = molecular target: 92 kDa gelatinase (MMP-9) (Homo sapiens, UniProt P14780); experiment: MMP-9 enzyme inhibition assay (coumarin-labeled peptide substrate); conditions: read-out: IC50 MMP9
Sequence of 92 kDa gelatinase (MMP-9) (P14780 107-707 limits assumed): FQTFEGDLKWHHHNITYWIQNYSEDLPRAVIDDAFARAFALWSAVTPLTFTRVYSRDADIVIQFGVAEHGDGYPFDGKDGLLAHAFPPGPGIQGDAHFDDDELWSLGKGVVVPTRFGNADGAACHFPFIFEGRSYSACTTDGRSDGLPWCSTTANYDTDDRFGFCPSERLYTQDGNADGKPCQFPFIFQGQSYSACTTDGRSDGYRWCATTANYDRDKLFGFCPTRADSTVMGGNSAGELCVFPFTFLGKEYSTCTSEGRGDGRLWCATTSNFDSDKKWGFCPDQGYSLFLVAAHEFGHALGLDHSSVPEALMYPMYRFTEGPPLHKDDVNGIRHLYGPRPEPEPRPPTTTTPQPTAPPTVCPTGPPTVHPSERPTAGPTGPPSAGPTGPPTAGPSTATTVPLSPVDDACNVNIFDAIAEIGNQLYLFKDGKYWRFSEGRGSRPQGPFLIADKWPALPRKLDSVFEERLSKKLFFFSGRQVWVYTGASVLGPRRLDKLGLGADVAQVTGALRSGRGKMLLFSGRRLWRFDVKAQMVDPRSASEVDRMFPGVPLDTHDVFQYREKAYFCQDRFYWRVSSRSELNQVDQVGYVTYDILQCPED
Protocol: as §1, §2, §3, §4, §5, §6, §7, §8

Sequence of metalloelastase (MMP-12) (P39900 106-470): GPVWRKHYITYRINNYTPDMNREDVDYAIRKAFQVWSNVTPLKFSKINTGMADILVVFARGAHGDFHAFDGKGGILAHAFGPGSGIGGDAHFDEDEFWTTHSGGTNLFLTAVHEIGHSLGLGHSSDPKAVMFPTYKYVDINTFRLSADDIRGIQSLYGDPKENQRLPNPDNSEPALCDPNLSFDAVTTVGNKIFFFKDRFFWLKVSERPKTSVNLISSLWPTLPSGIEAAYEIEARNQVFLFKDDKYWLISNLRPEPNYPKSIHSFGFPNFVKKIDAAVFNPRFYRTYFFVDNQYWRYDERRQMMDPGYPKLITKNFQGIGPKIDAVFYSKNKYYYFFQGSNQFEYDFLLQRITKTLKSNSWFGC

Row | SMILES | IC50 [1] | IC50 [2] | inhibition at 0.1 µM ([3]; @ 0.1 μM) | inhibition at 5 µM [4] | inhibition at 5 µM [3] | IC50 [5]
1 | CC(C)(C)OC(=O)N1CCC[C@@H]1[C@H](CS(=O)(=O)N1CCc2cc(Cl)c(Cl)cc2C1)N(O)C=O (racemic) [Example 46, tert-butyl (2RS)-2-{(1RS)-2-[(6,7-dichloro-3,4-dihydro-isoquinolin-2(1H)-yl)sulfonyl]-1-[formyl(hydroxy)amino]ethyl}pyrrolidine-1-carboxylate] | 460 nM | ≥ 5000 nM | 19% |  |  | 
2 | O=CN(O)C(CS(=O)(=O)N1CCc2ccccc2C1)c1ccsc1 (centres unmarked) [Example 7, N-[2-(3,4-dihydroisoquinolin-2(1H)-ylsulfonyl)-1-(3-thienyl)ethyl]-N-hydroxyformamide] | 18 nM | 784 nM |  | 31% | 71% | > 5000 nM
3 | COc1cc2c(cc1OC)CN(S(=O)(=O)CC(C1CCCC1)N(O)C=O)CC2 (centres unmarked) [Example 15, N-{1-cyclopentyl-2-[(6,7-dimethoxy-3,4-dihydroisoquinolin-2(1H)-yl)sulfonyl]ethyl}-N-hydroxyformamide] | 185 nM | > 5000 nM |  | 0% | 0% | > 5000 nM
4 | CCC(CC)C(CS(=O)(=O)N1CCc2cc(OC)c(OC)cc2C1)N(O)C=O (centres unmarked) [Example 17, N-(1-{[(6,7-dimethoxy-3,4-dihydroisoquinolin-2(1H)-yl)sulfonyl]methyl}-2-ethylbutyl)-N-hydroxyformamide] | 103 nM | > 5000 nM |  | 0% | 0% | > 5000 nM
5 | CC(C)CC(CS(=O)(=O)N1CCc2ccc(OC(C)C)cc2C1)N(O)C=O (centres unmarked) [Example 51, N-hydroxy-N-(1-{[(7-isopropoxy-3,4-dihydroisoquinolin-2(1H)-yl)sulfonyl]methyl}-3-methylbutyl)formamide] | 109 nM | 1330 nM |  |  |  | 
6 | CSCCC(CS(=O)(=O)N1CCc2ccc(C(C)(C)C)cc2C1)N(O)C=O (centres unmarked) [Example 54, N-[1-{[(7-tert-butyl-3,4-dihydroisoquinolin-2(1H)-yl)-sulfonyl]methyl}-3-(methylthio)propyl]-N-hydroxyformamide] | 234 nM | > 5000 nM |  |  |  | 
7 | CC(C)(C)c1ccc2c(c1)CN(S(=O)(=O)CC(C1CCOCC1)N(O)C=O)CC2 (centres unmarked) [Example 66, N-[2-[(7-tert-butyl-3,4-dihydroisoquinolin-2(1H)-yl)sulfonyl]-1-(tetrahydro-2H-pyran-4-yl)ethyl]-N-hydroxyformamide] | 209 nM | > 5000 nM |  |  |  | 
8 | CCOC(=O)C1CC1C(CS(=O)(=O)N1CCc2cc(OC)c(OC)cc2C1)N(O)C=O (centres unmarked) [Example 67, ethyl 2-[2-[(6,7-dimethoxy-3,4-dihydroisoquinolin-2(1H)-yl)sulfonyl]-1-[formyl(hydroxy)amino]ethyl]cyclopropanecarboxylate] | 111 nM | > 5000 nM |  |  |  | 
9 | COc1cc2c(cc1OC)CN(S(=O)(=O)CC(C1CC1C(=O)O)N(O)C=O)CC2 (centres unmarked) [Example 71, 2-[2-[(6,7-dimethoxy-3,4-dihydroisoquinolin-2(1H)-yl)-sulfonyl]-1-[formyl(hydroxy)amino]ethyl]cyclopropanecarboxylic acid] | 585 nM | > 5000 nM |  |  |  | 
10 | CC(C)Oc1ccc2c(c1)CN(S(=O)(=O)CC(C1CCCC1)N(O)C=O)CC2 (centres unmarked) [Example 78, N-{1-cyclopentyl-2-[(7-isopropoxy-3,4-dihydroisoquinolin-2(1H)-yl)sulfonyl]ethyl}-N-hydroxyformamide] | 322 nM | > 5000 nM |  |  |  | 
11 | COc1cc2c(cc1OC)CN(S(=O)(=O)CC(C1CC1)N(O)C=O)CC2 (centres unmarked) [Example 84, N-{1-cyclopropyl-2-[(6,7-dimethoxy-3,4-dihydro-isoquinolin-2(1H)-yl)sulfonyl]ethyl}-N-hydroxyformamide] | 366 nM | > 5000 nM |  |  |  | 
